For 18 molecules, IC50 results are on record in patent US20240262795A1, “PYRAZINE COMPOUNDS AS INHIBITORS OF FLT3” (Biomea Fusion, Inc., priority 2021, published 2024).

Holding throughout (format): cell-based, human
The test system of assay [1] is MV-4-11. Description: Proliferation inhibition, CellTiter-Glo, MV-4-11. As to conditions: Homo sapiens, MV4-11, 96 h; MV-4:11 cells, IC50 (4 days), CellTiter-Glo; read-out: MV-4:11 IC50. From the text: (§1) The proliferation inhibitory effect was investigated in human AML cell lines MOLM-13 (AddexBio: C0003003) and MV-4-11 (ATCC: CRL-9591), and CML cell line […] (ATCC: CRL-3343). Molm-13 is heterozygous for FLT3-ITD mutation, while MV4-11 is homozygous for FLT3-ITD (Quentmeier H, et al., Leukemia. 17(1):120-4). […] Cells were maintained in RPMI-1640 medium (ThermoFisher catalog no. 61870036) supplemented with 10% of Heat Inactivated FBS (ThermoFisher catalog no. A31605) and 1% Pen-Strep (ThermoFisher catalog no. 10378016) and cultured at 37° C. in a humidified incubator with 5% CO2. Cell lines were grown by […], and the cells were maintained in a range 70%-80% confluency.
(§2) ATP is present in all metabolically active cells and is considered as a marker for cell viability and proliferation. Metabolic cell activity was determined using the CellTiter-Glo kit (Promega catalog no. G7572), an ATP monitoring system based on the production of luminescence by the reaction of ATP with added UltraGlo® recombinant luciferase (Kawano et al., 2016, PLOS One, 8; 11(7):e0158888), according to the supplier's experimental recommendations. The assay was based on a 96 well plate format.
(§3) Test compounds were dissolved at 10 mM in DMSO (Sigma catalog no. D8418; purity≥99.9%) and stored at −20° C. Eight concentrations of test compound were assessed in duplicate in an individual test occasion in parallel in the selected cell lines. Gilteratinib and FF-10101 were used as reference compounds and tested in duplicate at eight concentrations. 100% of proliferation is represented by the untreated cells (0.2% DMSO).
(§4) On the day of the experiment, cells were quantified with the cell viability analyzer NucleoCounter (Chemometec NC-200) and diluted with fresh medium to obtain the cell density of about 10,000 cells per 200 μL medium. 200 μL of cell suspension were added into wells in the 96 well plate.
(§5) After 2 hours from seeding cells, compounds at desired concentrations were added using a D300e compound dispenser (Life Sciences Tecan D300) with shaking between each compound dispensed. Assay plates were incubated at 37° C. in a humidified incubator with 5% CO2.
(§6) On day 4 (˜96 hrs after compound addition) assay plates were equilibrated at room temperature for approximately 15 min, and then 40 μL/well of the Promega CellTiterGlo® reagent was added. Contents were mixed for 5 min on an orbital shaker to promote cell lysis, and then incubated at room temperature for an additional 10 min in the dark to stabilize the luminescent signal. Luminescence was read by using a GloMlax GM300 plate reader (Promega) using the luminescence for 96 well plate standard protocol.
(§7) Results were analyzed by GraphPad (Prism) and IC50 values were calculated by non-linear regression using four parameter-logistic equation.

Assay [2] deals with K-562. As to the kind of experiment: Proliferation inhibition, CellTiter-Glo, K-562. As to conditions: Homo sapiens, K562, 96 h; K-562 cells, IC50 (4 days), CellTiter-Glo; read-out: K-562 IC50.
Source text: as §1, §2, §3, §4, §5, §6, §7
A general note: Cellular ATP, detected with luciferase, serves as a proxy for viable cell number.

Assay [3] relates to MOLM-13. Description: Proliferation inhibition, CellTiter-Glo, MOLM-13. As to conditions: Homo sapiens, 96 h; MOLM-13 cells, IC50 (4 days), CellTiter-Glo; read-out: MOLM-13 IC50.
Source text: as §1, §2, §3, §4, §5, §6, §7

Each structure is given as a SMILES string. pIC50: −log10 of the molar value. Where only a bound is given, the exact number is not on record here.

As for `CCc1nc(C(N)=O)c(Nc2cccc(CCNC(=O)[C@H](C)N(C)C(=O)/C=C/CN(C)C)c2)nc1C` [Compound 142A, (S,E)-3-((3-(2-(2-(4-(dimethylamino)-N-methylbut-2-enamido)propanamido)ethyl)phenyl)amino)-6-ethyl-5-methylpyrazine-2-carboxamide], the pIC50 in assay [1] is 8.00 to 9.00; in assay [2] it was less than 6.30; in assay [3], 8.00 to 9.00.

Take `[2H]C([2H])([2H])N(C/C=C/C(=O)N(C)[C@@H](C)C(=O)NCCc1cccc(Nc2nc(N(C)C(C)C)c(CC)nc2C(N)=O)c1)C([2H])([2H])[2H]` [Compound 249, (S,E)-3-((3-(2-(2-(4-(bis(methyl-d3)amino)-N-methylbut-2-enamido)propanamido)ethyl)phenyl)amino)-6-ethyl-5-(isopropyl(methyl)amino)pyrazine-2-carboxamide]: the negative-log IC50 (pIC50) in assay [1] is greater than 9.00; in assay [2] it was less than 6.30; in assay [3], greater than 9.00.

For `C=C(F)C(=O)N(C)[C@@H](C)C(=O)NCCc1cccc(Nc2nc(C3CC3)c(CC)nc2C(N)=O)c1` [Compound 215, 5-cyclopropyl-6-ethyl-3-[3-[2-[[(2S)-2-[2-fluoroprop-2-enoyl(methyl)amino]propanoyl]amino]ethyl]anilino]pyrazine-2-carboxamide], the negative-log IC50 (pIC50) in assay [1], in assay [2] and in assay [3] was less than 6.30 in each case.

As to `CC#CC(=O)N(C)[C@@H](C)C(=O)NCCc1cccc(Nc2nc(N(C)C)c(C)nc2C(N)=O)c1` [Compound 217, 3-[3-[2-[[(2S)-2-[but-2-ynoyl(methyl)amino]propanoyl]amino]ethyl]anilino]-5-(dimethylamino)-6-methyl-pyrazine-2-carboxamide], the results for the pIC50 in assay [1], in assay [2] and in assay [3] were 7.00 to 8.00, less than 6.30 and 7.00 to 8.00, respectively.

On to `CCc1nc(C(N)=O)c(Nc2cccc([C@H](C)CNC(=O)CN(C)C(=O)/C=C/CN(C)C)c2)nc1C` [Compound 324, (S,E)-3-((3-(1-(2-(4-(dimethylamino)-N-methylbut-2-enamido)acetamido)propan-2-yl)phenyl)amino)-6-ethyl-5-methylpyrazine-2-carboxamide], for which the negative-log IC50 (pIC50) in assay [1] is 7.00 to 8.00; in assay [2] it was less than 6.30; in assay [3] it was 6.30 to 7.00.

For `C=CC(=O)N(C)[C@@H](C)C(=O)NCCc1cccc(Nc2nc(C3CC3)c(C)nc2C(N)=O)c1` [Compound 222, 5-cyclopropyl-6-methyl-3-[3-[2-[[(2S)-2-[methyl(prop-2-enoyl)amino]propanoyl]amino]ethyl]anilino]pyrazine-2-carboxamide], the values for the pIC50 in assay [1], in assay [2] and in assay [3] were 7.00 to 8.00, less than 6.30 and 7.00 to 8.00, respectively.

As to `Cc1nc(C(N)=O)c(Nc2cccc(CCNC(=O)C(C)N(C)C(=O)/C=C/CN(C)C)c2)nc1C1CC1` (stereo not drawn) [Compound 211, 5-cyclopropyl-3-[3-[2-[2-[[(E)-4-(dimethylamino)but-2-enoyl]-methyl-amino]propanoylamino]ethyl]anilino]-6-methyl-pyrazine-2-carboxamide], the pIC50 in assay [1] is 8.00 to 9.00; in assay [2] it was less than 6.30; in assay [3], 7.00 to 8.00.

In the case of `CCc1nc(C(N)=O)c(Nc2cccc(C[C@@H](C)NC(=O)CN(C)C(=O)/C=C/CN(C)C)c2)nc1C` [Compound 311, 3-[3-[(2R)-2-[[2-[[(E)-4-(dimethylamino)but-2-enoyl]-methyl-amino]acetyl]amino]propyl]anilino]-6-ethyl-5-methyl-pyrazine-2-carboxamide], the values for the pIC50 in assay [1], in assay [2] and in assay [3] were 7.00 to 8.00, less than 6.30 and 6.30 to 7.00, respectively.

Consider `C=CC(=O)N(C)[C@H](C)C(=O)NCCc1cccc(Nc2nc(C3CC3)c(CC)nc2C(N)=O)c1` [Compound 236, 5-cyclopropyl-6-ethyl-3-[3-[2-[[(2R)-2-[methyl(prop-2-enoyl)amino]propanoyl]amino]ethyl]anilino]pyrazine-2-carboxamide], for which the negative-log IC50 (pIC50) in assay [1] was 7.00 to 8.00; in assay [2], less than 6.30; in assay [3], 7.00 to 8.00.

On to `[2H]C([2H])([2H])N(C/C=C/C(=O)N(C)[C@@H](C)C(=O)NCCc1cccc(Nc2nc(C3CC3)c(C)nc2C(N)=O)c1)C([2H])([2H])[2H]` [Compound 248, (S,E)-3-((3-(2-(2-(4-(bis(methyl-d3)amino)-N-methylbut-2-enamido)propanamido)ethyl)phenyl)amino)-5-cyclopropyl-6-methylpyrazine-2-carboxamide], for which the negative-log IC50 (pIC50) in assay [1] was 8.00 to 9.00; in assay [2], less than 6.30; in assay [3] it was 8.00 to 9.00.

As to `CC#CC(=O)N(C)[C@@H](C)C(=O)NCCc1cccc(Nc2nc(N(C)C)c(CC)nc2C(N)=O)c1` [Compound 160, 3-[3-[2-[[(2S)-2-[but-2-ynoyl(methyl)amino]propanoyl]amino]ethyl]anilino]-5-(dimethylamino)-6-ethyl-pyrazine-2-carboxamide], the negative-log IC50 (pIC50) is 8.00 to 9.00 in assay [1], less than 6.30 in assay [2] and 7.00 to 8.00 in assay [3].

`CCc1nc(C(N)=O)c(Nc2cccc(CCNC(=O)[C@H](C)N(C)C(=O)/C=C/CN3CCC3)c2)nc1C` [Compound 202, (S,E)-3-((3-(2-(2-(4-(azetidin-1-yl)-N-methylbut-2-enamido)propanamido)ethyl)phenyl)amino)-6-ethyl-5-methylpyrazine-2-carboxamide]: the values for the pIC50 in assay [1], in assay [2] and in assay [3] were 8.00 to 9.00, less than 6.30 and 8.00 to 9.00, respectively.

As to `CCc1nc(Nc2cccc(CCNC(=O)[C@H](C)N(C)C(=O)/C=C/CN(C)C)c2)c(C(N)=O)nc1CC` [Compound 243, (S,E)-3-((3-(2-(2-(4-(dimethylamino)-N-methylbut-2-enamido)propanamido)ethyl)phenyl)amino)-5,6-diethylpyrazine-2-carboxamide], the pIC50 is greater than 9.00 in assay [1], less than 6.30 in assay [2] and 8.00 to 9.00 in assay [3].

`CCc1nc(C(N)=O)c(Nc2cccc(CCNC(=O)[C@@H](C)N(C)C(=O)/C=C/CN(C)C)c2)nc1C` [Compound 234, 3-[3-[2-[[(2R)-2-[[(E)-4-(dimethylamino)but-2-enoyl]-methyl-amino]propanoyl]amino]ethyl]anilino]-6-ethyl-5-methyl-pyrazine-2-carboxamide]: the values for the pIC50 in assay [1], in assay [2] and in assay [3] were 7.00 to 8.00, less than 6.30 and less than 6.30, respectively.

As for `Cc1cc(C(N)=O)c(Nc2cccc(CCNC(=O)[C@H](C)N(C)C(=O)/C=C/CN(C)C)c2)nc1C1CC1` [Compound 319, 6-cyclopropyl-2-[3-[2-[[(2S)-2-[[(E)-4-(dimethylamino)but-2-enoyl]-methyl-amino]propanoyl]amino]ethyl]anilino]-5-methyl-pyridine-3-carboxamide], the figures for the negative logarithm of the IC50 (pIC50) in assay [1], in assay [2] and in assay [3] were 7.00 to 8.00, less than 6.30 and 7.00 to 8.00, respectively.

Take `CCc1nc(C(N)=O)c(Nc2cccc(CCNC(=O)[C@H](C)N(C)C(=O)/C(F)=C/CN(C)C)c2)nc1N(C)C` [Compound 162, (S,Z)-5-(dimethylamino)-3-((3-(2-(2-(4-(dimethylamino)-2-fluoro-N-methylbut-2-enamido)propanamido)ethyl)phenyl)amino)-6-ethylpyrazine-2-carboxamide]: the results for the pIC50 in assay [1], in assay [2] and in assay [3] were 7.00 to 8.00, less than 6.30 and 6.30 to 7.00, respectively.

Turning to `Cc1nc(C(N)=O)c(Nc2cccc(CCNC(=O)[C@H](C)N(C)C(=O)/C=C/CN3CCC3)c2)nc1C1CC1` [Compound 242, (S,E)-3-((3-(2-(2-(4-(azetidin-1-yl)-N-methylbut-2-enamido)propanamido)ethyl)phenyl)amino)-5-cyclopropyl-6-methylpyrazine-2-carboxamide], the negative-log IC50 (pIC50) in assay [1] was 8.00 to 9.00; in assay [2] it was less than 6.30; in assay [3] it was 8.00 to 9.00.

`C=CC(=O)N(C)[C@@H](C)C(=O)NCCc1cccc(Nc2nc(C)c(C)nc2C(N)=O)c1` [Compound 238, 5,6-dimethyl-3-[3-[2-[[(2S)-2-[methyl(prop-2-enoyl)amino]propanoyl]amino]ethyl]anilino]pyrazine-2-carboxamide]: the pIC50 in assay [1], in assay [2] and in assay [3] was less than 6.30 each time.

A word on the pIC50: it is −log10 of the IC50, conventionally taken in molar units.
